Laboratory results taken from patent US20100305120A1, “COMPOUNDS FOR TREATING MUSCULAR DYSTROPHY” (BIOMARIN IGA LIMITED, priority 2008, published 2010).

test system: Utrophin A promoter linked to a luciferase reporter gene; assay: Luciferase reporter assay (murine H2K cells), H2K/mdx/Utro A reporter cell line; assay type: cell-based; settings: 48 h; test compound concentration 0.3 μM; mdx mouse H2K Utrophin A reporter cells; read-out: Activity (luciferase level relative to control)
Procedure, shortened: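 Immortalized mdx mouse H2K myoblasts stably carrying ~5 kb utrophin A promoter–luciferase construct, kept at 33 °C, 10% CO2. Compound added 24 h after plating, typically at 10 μM final, for 48 h; luciferase measured by cell lysis and luminescence.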

Which activity at 0.3 µM does the source give for `O=C(Nc1ccc2c(c1)OCO2)c1nn(Cc2ccc3ccccc3c2)c2ccccc12` [Compound 141, N-(benzo[d][1,3]dioxol-5-yl)-1-(naphthalen-2-ylmethyl)-1H-indazole-3-carboxamide] here?
The activity at 0.3 µM was less than 200%.

For `CS(=O)(=O)c1ccc(Cn2nc(NC(=O)Nc3ccc(Cl)cc3)c3ccccc32)cc1` [Compound 118, 1-(4-chlorophenyl)-3-(1-(4-(methylsulfonyl)benzyl)-1H-indazol-3-yl)urea], which activity at 0.3 µM is on record?
The activity at 0.3 µM was less than 200%.

same assay, conditions: 48 h; test compound concentration 10 μM; mdx mouse H2K Utrophin A reporter cells; read-out: Activity (luciferase level relative to control)

Which activity at 10 µM does the source give for `CCS(=O)(=O)c1ccc(Cn2nc(C(=O)Nc3ccc4c(c3)OCO4)c3ccccc32)cc1` [Compound 156, N-(benzo[d][1,3]dioxol-5-yl)-1-(4-(ethylsulphonyl)benzyl)-1H-indazole-3-carboxamide] here?
Its activity at 10 µM is 201 to 300%.

For `CCn1ccc(C(=O)Nc2ccc(Cl)cc2Cl)n1` [Compound 147, N-(2,4-dichlorophenyl)-1-ethyl-1H-pyrazole-3-carboxamide], which activity at 10 µM is on record?
The activity at 10 µM was less than 200%.

`COc1ccc(NC(=O)c2nn(Cc3ccc(-c4ccccc4)cc3)c3ccccc23)cc1` [Compound 74, 1-(biphenyl-4-ylmethyl)-N-(4-methoxyphenyl)-1H-indazole-3-carboxamide] was tested. Which activity at 10 µM did it give?
The activity at 10 µM was less than 200%.

With `COc1cccc(OCc2ccc(Cn3nc(NC(=O)NCc4ccccc4F)c4ccccc43)cc2)c1` [Compound 28, 1-(2-fluorobenzyl)-3-(1-(4-((3-methoxyphenoxy)methyl)benzyl)-1H-indazol-3-yl)urea] as the compound, how does the activity at 10 µM read?
The activity at 10 µM was 201 to 300%.

`Cc1cccc(NC(=O)Nc2nn(Cc3ccc(COc4ccc5c(c4)OCO5)cc3)c3ccc(C(F)(F)F)cc23)c1` [Compound 51, 1-(1-(4-((benzo[d][1,3]dioxol-5-yloxy)methyl)benzyl)-5-(trifluoromethyl)-1H-indazol-3-yl)-3-m-tolylurea] was tested. Which activity at 10 µM did it give?
The activity at 10 µM was less than 200%.

How did the activity at 10 µM turn out when `Cc1cccc(NC(=O)Nc2nn(Cc3ccc(C(F)(F)F)cc3)c3ccccc23)c1` [Compound 15, 1-m-tolyl-3-(1-(4-(trifluoromethyl)benzyl)-1H-indazol-3-yl)urea] was run?
The activity at 10 µM was less than 200%.

For `Cc1ccc(NC(=O)c2nn(Cc3ccc(S(C)(=O)=O)cc3)c3ccccc23)cn1` [Compound 133, N-(6-methylpyridin-3-yl)-1-(4-(methylsulfonyl)benzyl)-1H-indazole-3-carboxamide], which activity at 10 µM is on record?
The activity at 10 µM was less than 200%.

With `CC(C)c1cccc(NC(=O)c2nn(Cc3ccc(S(C)(=O)=O)cc3)c3ccccc23)c1` [Compound 96, N-(3-isopropylphenyl)-1-(4-(methylsulfonyl)benzyl)-1H-indazole-3-carboxamide] as the compound, how does the activity at 10 µM read?
Its activity at 10 µM is less than 200%.

How did the activity at 10 µM turn out when `CN(C)C(=O)c1cccc(Cn2nc3ccccc3c2C(=O)Nc2ccc3c(c2)OC(F)(F)O3)c1` [Compound 135, N-(2,2-difluorobenzo[d][1,3]dioxol-5-yl)-2-(3-(dimethylcarbamoyl)benzyl)-2H-indazole-3-carboxamide] was run?
The activity at 10 µM was 201 to 300%.

`Cc1csc(NC(=O)c2nn(Cc3ccc(S(C)(=O)=O)cc3)c3ccccc23)n1` [Compound 126, 1-(4-(methylsulfonyl)benzyl)-N-(4-methylthiazol-2-yl)-1H-indazole-3-carboxamide] was tested. Which activity at 10 µM did it give?
The activity at 10 µM was less than 200%.

With `CS(=O)(=O)c1ccc(Cn2nc(C(=O)Nc3ccc(Cl)cc3)c3ccccc32)cc1` [Compound 89, N-(4-chlorophenyl)-1-(4-(methylsulfonyl)benzyl)-1H-indazole-3-carboxamide] as the compound, how does the activity at 10 µM read?
Its activity at 10 µM is 201 to 300%.

For `CC(=O)Nc1ccc(NC(=O)c2nn(Cc3ccc(C(F)(F)F)cc3)c3ccccc23)cc1` [Compound 109, N-(4-acetamidophenyl)-1-(4-(trifluoromethyl)benzyl)-1H-indazole-3-carboxamide], which activity at 10 µM is on record?
The activity at 10 µM was less than 200%.

With `O=C(NCc1ccco1)Nc1nn(Cc2cc3c(cc2Cl)OCO3)c2ccccc12` [Compound 55, 1-(1-((6-chlorobenzo[d][1,3]dioxol-5-yl)methyl)-1H-indazol-3-yl)-3-(furan-2-ylmethyl)urea] as the compound, how does the activity at 10 µM read?
Its activity at 10 µM is less than 200%.

Which activity at 10 µM does the source give for `O=C(Nc1ccc2c(c1)OCO2)c1nn(Cc2ccc(-c3ccccc3)cc2)c2ccccc12` [Compound 50, N-(benzo[d][1,3]dioxol-5-yl)-1-(biphenyl-4-ylmethyl)-1H-indazole-3-carboxamide] here?
The activity at 10 µM was less than 200%.

Which activity at 10 µM does the source give for `O=C(Nc1ccc2c(c1)OCO2)c1nn(Cc2ccncc2)c2ccccc12` [Compound 97, N-(benzo[d][1,3]dioxol-5-yl)-1-(pyridin-4-ylmethyl)-1H-indazole-3-carboxamide] here?
The activity at 10 µM was less than 200%.

For `NC(=O)c1ccc(NC(=O)c2nn(Cc3ccc(S(=O)(=O)N4CCOCC4)cc3)c3ccccc23)cc1` [Compound 64, N-(4-carbamoylphenyl)-1-(4-(morpholinosulfonyl)benzyl)-1H-indazole-3-carboxamide], which activity at 10 µM is on record?
Its activity at 10 µM is less than 200%.

How did the activity at 10 µM turn out when `COc1ccc(NC(=O)c2nn(Cc3ccc(S(C)(=O)=O)cc3)c3ccccc23)cc1OC` [Compound 82, N-(3,4-dimethoxyphenyl)-1-(4-(methylsulfonyl)benzyl)-1H-indazole-3-carboxamide] was run?
The activity at 10 µM was less than 200%.

`COc1ccc(CCNC(=O)Nc2nn(Cc3ccc(COc4cccc(OC)c4)cc3)c3ccccc23)cc1` [Compound 80, 1-(4-methoxyphenethyl)-3-(1-(4-((3-methoxyphenoxy)methyl)benzyl)-1H-indazol-3-yl)urea] was tested. Which activity at 10 µM did it give?
Its activity at 10 µM is less than 200%.

With `CCN(CC)S(=O)(=O)c1ccc(Cn2nc(C(=O)Nc3ccccn3)c3ccccc32)cc1` [Compound 39, 1-(4-(N,N-diethylsulfamoyl)benzyl)-N-(pyridin-2-yl)-1H-indazole-3-carboxamide] as the compound, how does the activity at 10 µM read?
Its activity at 10 µM is less than 200%.

Which activity at 10 µM does the source give for `CS(=O)(=O)c1ccc(Cn2nc(C(=S)Nc3ccc4c(c3)OCO4)c3ccccc32)cc1` [Compound 102, N-(benzo[d][1,3]dioxol-5-yl)-1-(4-(methylsulfonyl)benzyl)-1H-indazole-3-carbothioamide] here?
The activity at 10 µM was 201 to 300%.

Which activity at 10 µM does the source give for `CC(C)c1nc(Cn2nc(C(=O)Nc3ccc4c(c3)OCO4)c3ccccc32)no1` [Compound 154, N-(benzo[d][1,3]dioxol-5-yl)-1-((5-isopropyl-1,2,4-oxadiazol-3-yl)methyl)-1H-indazole-3-carboxamide] here?
Its activity at 10 µM is less than 200%.

With `CC(C)c1ccc(Cn2nc(C(=O)Nc3ccc4c(c3)OCO4)c3ccccc32)cc1` [Compound 119, N-(benzo[d][1,3]dioxol-5-yl)-1-(4-isopropylbenzyl)-1H-indazole-3-carboxamide] as the compound, how does the activity at 10 µM read?
The activity at 10 µM was less than 200%.

`Cc1cccc(CNC(=O)Nc2nn(Cc3cc4c(cc3Cl)OCO4)c3ccccc23)c1` [Compound 32, 1-(1-((6-chlorobenzo[d][1,3]dioxol-5-yl)methyl)-1H-indazol-3-yl)-3-(3-methylbenzyl)urea] was tested. Which activity at 10 µM did it give?
The activity at 10 µM was less than 200%.

Which activity at 10 µM does the source give for `CS(=O)(=O)c1ccc(Cn2nc(C(=O)Nc3ccc4c(c3)OCCO4)c3ccccc32)cc1` [Compound 105, N-(2,3-dihydrobenzo[b][1,4]dioxin-6-yl)-1-(4-(methylsulfonyl)benzyl)-1H-indazole-3-carboxamide] here?
The activity at 10 µM was greater than 401%.

`O=C(Nc1ccc2c(c1)OCCO2)c1nn(Cc2ccc(C(=O)N3CCOCC3)cc2)c2cc(F)ccc12` [Compound 162, N-(2,3-dihydrobenzo[b][1,4]dioxin-6-yl)-6-fluoro-1-(4-(morpholine-4-carbonyl)benzyl)-1H-indazole-3-carboxamide] was tested. Which activity at 10 µM did it give?
The activity at 10 µM was 201 to 300%.

For `CS(=O)(=O)c1ccc(Cn2nc(C(=O)Nc3ccccc3)c3ccccc32)cc1` [Compound 83, N-phenyl-1-(4-(methylsulfonyl)benzyl)-1H-indazole-3-carboxamide], which activity at 10 µM is on record?
Its activity at 10 µM is less than 200%.

With `Cc1ccc(NC(=O)c2nn(Cc3ccc(S(C)(=O)=O)cc3)c3ccccc23)cc1` [Compound 108, 1-(4-(methylsulfonyl)benzyl)-N-p-tolyl-1H-indazole-3-carboxamide] as the compound, how does the activity at 10 µM read?
Its activity at 10 µM is greater than 401%.

Which activity at 10 µM does the source give for `O=C(Nc1ccc2c(c1)OC(F)(F)C(F)(F)O2)c1nn(Cc2ccc(C(=O)N3CCOCC3)cc2)c2ccccc12` [Compound 161, 1-(4-(morpholine-4-carbonyl)benzyl)-N-(2,2,3,3-tetrafluoro-2,3-dihydrobenzo[b][1,4]dioxin-6-yl)-1H-indazole-3-carboxamide] here?
The activity at 10 µM was 201 to 300%.

Which activity at 10 µM does the source give for `CCc1ccc(Cn2nc(C(=O)Nc3ccc4c(c3)OCO4)c3ccccc32)nc1` [Compound 153, N-(benzo[d][1,3]dioxol-5-yl)-1-((5-ethylpyridin-2-yl)methyl)-1H-indazole-3-carboxamide] here?
Its activity at 10 µM is less than 200%.

Which activity at 10 µM does the source give for `O=C(Nc1ccc2c(c1)OCO2)c1nn(CCOc2ccccc2)c2ccccc12` [Compound 58, N-(benzo[d][1,3]dioxol-5-yl)-1-(2-phenoxyethyl)-1H-indazole-3-carboxamide] here?
Its activity at 10 µM is 201 to 300%.

How did the activity at 10 µM turn out when `O=C(Nc1nccs1)c1nn(CCCOc2ccccc2)c2ccccc12` [Compound 16, 1-(3-phenoxypropyl)-N-(thiazol-2-yl)-1H-indazole-3-carboxamide] was run?
The activity at 10 µM was greater than 401%.

Which activity at 10 µM does the source give for `O=C(Nc1ccc2c(c1)OCO2)c1nn(Cc2ccc(C(=O)N3CCCC3)cc2)c2ccccc12` [Compound 142, N-(benzo[d][1,3]dioxol-5-yl)-1-(4-(pyrrolidine-1-carbonyl)benzyl)-1H-indazole-3-carboxamide] here?
Its activity at 10 µM is 201 to 300%.

Which activity at 10 µM does the source give for `CS(=O)(=O)c1ccc(C(=O)n2nc(C(=O)Nc3ccc4c(c3)OCO4)c3ccccc32)cc1` [Compound 140, N-(benzo[d][1,3]dioxol-5-yl)-1-(4-(methylsulfonyl)benzoyl)-1H-indazole-3-carboxamide] here?
The activity at 10 µM was 301 to 400%.

`CC(C)c1ccccc1NC(=O)c1nn(Cc2ccc(S(C)(=O)=O)cc2)c2ccccc12` [Compound 85, N-(2-isopropylphenyl)-1-(4-(methylsulfonyl)benzyl)-1H-indazole-3-carboxamide] was tested. Which activity at 10 µM did it give?
The activity at 10 µM was less than 200%.

`CC(C)c1ccc(NC(=O)c2nn(Cc3ccc(-c4ccccc4)cc3)c3ccccc23)cc1` [Compound 27, 1-(biphenyl-4-ylmethyl)-N-(4-isopropylphenyl)-1H-indazole-3-carboxamide] was tested. Which activity at 10 µM did it give?
The activity at 10 µM was less than 200%.

Which activity at 10 µM does the source give for `O=C(Nc1ccc2c(c1)CCC2)Nc1nn(Cc2ccc(C(F)(F)F)cc2)c2ccccc12` [Compound 53, 1-(2,3-dihydro-1H-inden-5-yl)-3-(1-(4-(trifluoromethyl)benzyl)-1H-indazol-3-yl)urea] here?
Its activity at 10 µM is less than 200%.
